Experimental data reported in patent EP4733299A1, “SULFUR-CONTAINING FUSED RING COMPOUND, PHARMACEUTICAL COMPOSITION CONTAINING SAME, AND PREPARATION METHOD THEREFOR AND USE THEREOF” (Shenzhen Braegen Pharmaceutical Co., Ltd., priority 2023, dated 2024).

Assays:
Aβ plaques = assay: Ex vivo staining of human AD patient brain sections; type: binding; details: AD brains; Fig. 3
Experimental: (§1) The ex vivo screening was extended into human DLB, and AD patient samples. Neurodegenerative diseases of DLB belong to synucleino-pathies with well-defined Lewy bodies. Therefore, the positive compounds should show robust signals with LBs and LNs.
(§2) For immunohistochemical staining, deparaffinized and antigen-retrieved 20 µm-thick human brain sections were treated with 0.3% H2O2 at room temperature for 10 min. Subsequently, the sections were washed in PBS with 0.3% Triton X-100 3 times and then blocked with 1% BSA for 30 min, followed by overnight incubation with anti-Aβ/AT8/α-Syn pS129 antibody at 4 °C. The signal was developed using a Histostain-SP kit (Invitrogen, Catalog No.: 95-9943). After washing, the sections were covered with a glass cover using mounting solution.

AT8-positive NFTs = assay: as above; type: binding; details: AD brains; Fig. 3
Experimental: as §1, §2

AT8 = molecular target: T1, AT8 (Homo sapiens, UniProt P10636, P618S); assay: In vivo validation: tail vein injection, then staining of brain sections; parameters: species or system Tau P301S mice; details: 2 mg/kg tail vein injection; 0.5 hours after administration
T1 construct: tissue The Jackson Laboratory 008169; host or cells: brain of Tau P301S mice, compound injected in vivo, sections made afterwards
T1 sequence (P10636 1-412 isoform P10636-7 P272S): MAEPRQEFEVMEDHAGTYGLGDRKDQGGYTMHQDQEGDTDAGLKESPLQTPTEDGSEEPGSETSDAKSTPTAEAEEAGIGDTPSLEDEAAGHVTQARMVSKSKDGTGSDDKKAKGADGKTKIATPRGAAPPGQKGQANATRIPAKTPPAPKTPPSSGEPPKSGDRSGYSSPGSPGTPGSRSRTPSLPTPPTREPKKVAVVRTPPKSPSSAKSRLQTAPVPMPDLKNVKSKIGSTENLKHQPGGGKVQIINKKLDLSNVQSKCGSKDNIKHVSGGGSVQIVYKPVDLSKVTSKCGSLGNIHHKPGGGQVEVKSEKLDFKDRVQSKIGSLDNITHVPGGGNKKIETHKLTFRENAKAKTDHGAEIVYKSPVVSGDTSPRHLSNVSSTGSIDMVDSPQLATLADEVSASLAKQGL
Experimental: (§3) In vivo validation of the compounds was performed using 8-month-old wild-type mice (Jiangsu Aniphe Biolaboratory Inc), 12-month-old 5xFAD mice (The Jackson Laboratory; Catalog No.: 034840), 6-month-old Tau P301S mice (The Jackson Laboratory; Catalog No.: 008169), and rotenone-treated α-Syn A53T mice (The Jackson Laboratory; Catalog No.: 017682). All mice were stratified by sex and randomly divided into groups, and the compounds were administered via tail vein injection at a dose of 2 mg/kg. Tissues were harvested and mouse brain sections were prepared 0.5 hours after administration, followed by staining with anti-Aβ (Biolegend; Catalog No.: SIG-39300) or AT8 (Thermo Fisher; Catalog No.: MN1020) together with the compounds, respectively.

[1] = molecular target: T2, α-Syn-p129 or α-Syn aggregates (Homo sapiens, UniProt P37840, A53T); assay: as above; parameters: species or system rotenone-treated α-Syn A53T mice; details: 2 mg/kg tail vein injection; 0.5 hours after administration
T2 construct: tissue The Jackson Laboratory 017682; host or cells: brain sections of rotenone-treated transgenic mice
Experimental: as §3

Aβ = molecular target: T3, Aβ (Homo sapiens, UniProt P05067); assay: as above; parameters: species or system 5xFAD mice; details: 2 mg/kg tail vein injection; 0.5 hours after administration
T3 construct: tissue The Jackson Laboratory 034840; host or cells: brain of 5xFAD mice, compound injected in vivo, sections made afterwards
T3 sequence (P05067 672-713 limits assumed): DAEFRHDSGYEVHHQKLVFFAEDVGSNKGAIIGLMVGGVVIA
Experimental: as §3

Aβ aggregates [2] = assay: Fluorescence binding assay with protein aggregates (fluorescence spectrophotometer); details: Kd for Aβ to Kd for α-Synuclein
Experimental: (§4) First, the compound was a final concentration of 5 µM by dissolved in 50 mM Tris-buffer (pH 7.0) with 0.0025% (v/v) DMSO. Then, Aβ, α-Synuclein, and Tau aggregates were added, with their final concentrations being 0.02, 0.04, 0.08, 0.16, 0.32, 0.64, and 1.28 µM, respectively. Subsequently, the fluorescence measurements were detected using a fluorescence spectrophotometer (Horiba, Fluorolog3).
(§5) Aβ PFF: Aβ (1-42) peptide (rPeptide; catalog No.: A-1163-1) was resolved in 9 volumes of ice-cold distilled water and vortexed occasionally. After 30 min, one volume of 10X fibril-forming buffer (0.2 M NaPi, 1.5 M NaCl, 0.2% NaN3, pH 7.5) was added. The final concentration of peptide was 1 mg/ml. The solution was incubated at 37 °C for one week.
(§6) Tau aggregates: The cDNA sequence of Tau was inserted into a plasmid carrying a GST tag, which was then transfected into BL21 bacteria for protein expression. Bacterial pellets were resuspended in high-salt buffer (0.75 M NaCl, 50 mM Tris, pH 7.4, 1 mM EDTA), sonicated, and centrifuged at 70,000 x g for 30 min. The supernatants were applied onto a Glutathione sepharose beads column (GE Healthcare) and purified by GST tag. Thrombin was used to remove the GST tag. The protein was dialyzed with FPLC buffer (50 mM NaCl, 50 mM Tris- HCl pH 7.4). The protein was filtered through a 0.22 µm syringe filter. The concentration of Tau was adjusted to 3 mg/mL, 12.5 µM heparin was added, and the mixture was shaken at 37 °C and 300 rpm for 7 days to prepare Tau aggregates. • Incubation Concentrations: 0.02, 0.04, 0.08, 0.16, 0.32, 0.64, and 1.28 µM; • Incubation Temperature: 37°C; • Incubation Duration: 5 min; • Detection Wavelengths: [formula]
(§7) Statistical analysis was performed using GraphPad Prism® version 8.2.1.

Aβ aggregates [3] = molecular target: T4, Aβ aggregates (Homo sapiens, UniProt P05067); assay: as above; details: Aβ aggregates; compound 5 µM, 37°C, 5 min
T4 construct: Aβ (1-42) peptide (rPeptide; catalog No.: A-1163-1); purchased rPeptide A-1163-1
T4 sequence (P05067 672-713): as the sequence (P05067 672-713 limits assumed) above
Experimental: as §4, §5, §6, §7

α-Synuclein aggregates = molecular target: T5, α-Synuclein aggregates (Homo sapiens, UniProt P37840); assay: as above; details: compound 5 µM, 37°C, 5 min
T5 construct: purchased Proteos Inc RP-002
Experimental: as §4
α-synuclein Aggregates (Proteos Inc; catalog No.: RP-002).
as §6, §7

[4] = In vivo PK profiling, plasma and brain exposure; parameters: species or system male CD-1 (ICR) mice; details: 5 mg/kg via tail vein injection; for Kp at 1 min: at 1 minute, read-out: brain/plasma ratio; for half-life: plasma
Experimental: To test whether these compounds are brain permeable in vivo, in vivo PK profiling was conducted to determain brain exposure.
An in vivo PK study was performed in male CD-1 (ICR) mice. Weighed a known amount of test compound and dissolved in vehicle (5% NMP + 15% Solutol + 80% PBS) to make a formulation (1 mg/mL). Then administered 5 mg/kg compound via tail vein injection into mice. The experiment included five groups (sampling time points), each group consisting of three male CD-1 (ICR) mice (body weight range: 29.1-30.6 g). At designated time points (0, 1, 5, 15, and 30 minutes post-injection), serial venous blood samples (approximately 30 µL each) and brain tissue samples were harvested from each animal. Blood samples were collected into Vacutainer IM tubes containing EDTA-K2 anticoagulant, inverted several times, and immediately placed on wet ice pending plasma centrifugation. For brain tissue samples, PBS (100 mM, pH 7.4) at […] the weight of the tissue (1:4, w/v) was added for homogenization. The concentrations of the test compound in plasma and brain tissue homogenates were measured by the LC/MS/MS analysis, with the specific operations as follows: Aliquots of 10 µL plasma sample or 50 µL brain homogenate sample was transferred to a 96-well plate, mixed with 200 µL protein precipitation solvent (methanol/acetonitrile, 1:1 v/v, containing 5 ng/mL Terfenadine). After protein precipitation, the supernatant was collected and diluted 3-fold with methanol/water (1:1, v/v, containing 0.1% FA). 1 µL of plasma samples or 3 µL of brain tissue homogenate samples was taken for LC/MS/MS analysis.

[5] = male, CD-1 (ICR), mouse, brain/plasma, intravenous
[6] = male, CD-1 (ICR), mouse, brain/plasma, intravenous, read-out: brain/plasma ratio, maximum
[7] = male, CD-1 (ICR), mouse, intravenous

Structure (SMILES)	staining of Aβ plaques (Aβ plaques)	staining of AT8-positive NFTs (AT8-positive NFTs)	specific binding to AT8 (AT8)	co-localization with α-Syn-p129 or α-Syn aggregates [1]	specific binding to Aβ (Aβ)	Ratio / α-Synuclein (Aβ aggregates [2])	Kd (Aβ aggregates [3]) [nM]	Kd (α-Synuclein aggregates) [nM]	plasma half-life extension compared to F0502B [4] [fold]	Kp at 1 min [4, 5]	Kp at 15 min [4, 6]	half-life [4, 7] [min]	Kp at 30 min ([4]; male, CD-1 (ICR), mouse, brain/plasma, intravenous, at 30 minutes, read-out: brain/plasma ratio, maximum)
Cc1cc2nc(/C=C/c3ccc(O)c(N)c3)sc2cc1N(C)CCOCCF [Compound C, (E)-2-amino-4-(2-(6-((2-(2-fluoroethoxy)ethyl)(methyl)amino)-5-methylbenzo[d]thiazol-2-yl)vinyl)phenol]	did not stain	did not stain	no specific binding	co-localized	no specific binding	4.80	1510	314	10	0.24	1.29	68.4	
COc1c(/C=C/c2nc3cc(C)c(N(C)CCOCCF)cc3s2)ccc(O)c1Br [Compound E, (E)-2-bromo-4-(2-(6-((2-(2-fluoroethoxy)ethyl)(methyl)amino)-5-methylbenzo[d]thiazol-2-yl)vinyl)-3-methoxyphenol]	did not stain	did not stain	no specific binding	co-localized	no specific binding	5.59	87.2	15.6		0.12	3.37		
CCN(CCOCCF)c1cc2sc(/C=C/c3ccc(O)c(Br)c3)nc2cc1C [Compound R, (E)-2-bromo-4-(2-(6-(ethyl(2-(2-fluoroethoxy)ethyl)amino)-5-methylbenzo[d]thiazol-2-yl)vinyl)phenol]	did not stain	did not stain	no specific binding	co-localized	no specific binding	15.74	1270	80.9	4.7	0.05		32.4	2.55
